{"source": "paper PMC9787607", "about": "“A Novel Protocol for the Synthesis of 1,2,4-Oxadiazoles Active against Trypanosomatids and Drug-Resistant Leukemia Cell Lines” (Tropical Medicine and Infectious Disease, 2022)", "key": {"[1]": {"tested_on": "T. cruzi amastigotes (Tulahuen C2C4 LacZ strain)", "assay": "microbe, parasite or virus in culture", "assay_type": "cell-based, Trypanosoma cruzi", "conditions": "for viability at 50 µM: LLC-MK2, 120 h; for EC50: in LLC-MK2, 120 h, read-out: EC50 T. cruzi intracellular amastigotes; for S.I. (selectivity index): host cell/parasite EC50 ratio, LLC-MK2/T. cruzi", "protocol": "To a monolayer of 1.0 × 10^7 LLC-MK2 cells in a 150 cm^2 culture flask were added 5.0 × 10^7 trypomastigotes of T. cruzi expressing the […] (Tulahuen C2C4 LacZ) in complete DMEM with 2.5% FBS. The infection was allowed to occur for 24 h, the supernatant was removed, and the cell monolayer was washed with PBS. Complete DMEM with 2.5% FBS was renewed every 2 days up to the sixth day after infection. Trypomastigote forms were collected daily from the supernatant between days 7 and 12 after infection, enriched by differential centrifugation (1500× g for 10 min, 5580× g for 20 min), and resuspended in complete DMEM with 5% FBS. Parasite density was determined by counting the mobile trypomastigotes on Neubauer chambers before use.\n. The medium was renewed, and trypomastigote forms of T. cruzi (Tulahuen C2C4 LacZ strain, 2.0 × 10^5 parasites per well) were added. After incubation for 24 h at 37 °C in 5% CO2, the cell monolayer was washed with PBS to remove noninternalized parasites. DMEM without phenol red and 5% FBS was added, and infected cells were treated with compounds at a range of concentrations in triplicate (50 μM or 100–1 μM). Untreated infected cells and noninfected LLC-MK2 cells were used as negative and positive controls, respectively. Vehicle control containing DMEM without phenol red and 0.3% DMSO was maintained for comparison. After incubation for 120 h at 37 °C in 5% CO2, a solution containing […] and 0.8% IGEPAL CA-630 in PBS (30 µL per well), followed by further incubation for 2 h at 37 °C in 5% CO2. Absorbance was measured using a microplate reader at 570 nm.\nThe percent cell or parasite viability was calculated by the formula: % viability = [(A − P)/(N − P)] × 100, A = absorbance of specific well, P = positive control, N = negative control. Determination of half-maximal effective concentrations (EC50), calculated by logarithmic regression, and significance analysis (p < 0.05), using ANOVA and Dunnett’s test, by GraphPad Prism 7.0 software. The results are expressed as the mean and standard deviation (SD) of three independent experiments."}, "[2]": {"biological_target": "T1, human serum albumin (HSA) (Homo sapiens, UniProt P02768)", "T1 construct": "purchased Sigma-Aldrich A3782-1G", "T1 sequence (P02768 25-609)": "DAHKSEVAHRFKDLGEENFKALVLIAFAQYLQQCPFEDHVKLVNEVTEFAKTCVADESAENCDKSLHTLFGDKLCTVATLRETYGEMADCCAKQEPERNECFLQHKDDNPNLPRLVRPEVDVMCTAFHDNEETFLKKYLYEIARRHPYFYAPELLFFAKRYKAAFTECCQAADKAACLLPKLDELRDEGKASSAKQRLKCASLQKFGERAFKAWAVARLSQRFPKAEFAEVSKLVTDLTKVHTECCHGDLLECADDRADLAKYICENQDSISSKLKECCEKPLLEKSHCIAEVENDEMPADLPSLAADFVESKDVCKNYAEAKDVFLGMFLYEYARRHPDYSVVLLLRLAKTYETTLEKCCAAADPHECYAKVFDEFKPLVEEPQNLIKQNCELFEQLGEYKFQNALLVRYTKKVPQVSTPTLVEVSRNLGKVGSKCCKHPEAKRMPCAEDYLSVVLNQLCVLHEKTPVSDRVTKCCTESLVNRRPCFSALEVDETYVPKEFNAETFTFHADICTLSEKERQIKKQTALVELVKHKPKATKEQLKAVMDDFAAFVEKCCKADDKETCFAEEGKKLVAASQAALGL", "assay": "Circular dichroism of HSA", "assay_type": "binding", "conditions": "HSA 1.0 × 10^−6 M, proportion 1:10, 310 K", "protocol": "The CD analysis was carried out using 3.0 mL of HSA solution (1.0 × 10^−6 M, in PBS) without and with 23 in the proportion 1:10 in the 200–250 nm range at 310 K. The average spectra were obtained from three successive runs and corrected by subtraction of the buffer signal. The secondary structure content was estimated by analysis of the CD spectra using the online server BestSel (Beta Structure Selection http://bestsel.elte.hu/index.php; accessed on 12 March 2022)."}, "[3]": {"biological_target": "T1, human serum albumin (HSA)", "assay": "Competitive binding with HSA site probes (warfarin, ibuprofen, digitoxin)", "protocol": "Competitive binding studies were carried out using site probes for sites I, II, and III, i.e., warfarin, ibuprofen, and digitoxin, respectively. The HSA and site probes were used at a fixed concentration (1.0 × 10^−5 M), and the fluorescence quenching titration with compound 23 was performed as described previously for the steady-state fluorescence quenching procedure at 310 K."}, "[4]": {"biological_target": "T1, human serum albumin (HSA)", "assay": "Time-resolved fluorescence of HSA", "assay_type": "binding", "conditions": "HSA 1.0 × 10^−5 M with 23 1.32 × 10^−5 M, pH 7.4, 296 K", "protocol": "Time-resolved fluorescence measurements were performed on a model FL920 CD fluorimeter from Edinburgh Instruments equipped with an EPL laser (λexc = 280 ± 10 nm; pulse of 850 ps with energy of 1.8 µW/pulse; monitoring emission at 340 nm). The time-resolved fluorescence decays of a 3.0 mL HSA solution (1.0 × 10^−5 M, in PBS) were obtained without and with compound 23 (1.32 × 10^−5 M)."}, "[5]": {"biological_target": "T1, human serum albumin (HSA)", "assay": "Steady-state fluorescence quenching of HSA", "assay_type": "binding", "conditions": "for KSV (Stern-Volmer quenching constant) / kq (bimolecular quenching rate constant) / n (number of binding sites): PBS", "protocol": "Steady-state fluorescence and circular dichroism (CD) spectra were measured on a Jasco J-815 optical spectrometer employing a Jasco PFD-425S15F thermostatic cuvette holder. All spectra were recorded with appropriate background corrections. For the steady-state fluorescence data, inner filter corrections were performed, following the literature.\nThe steady-state fluorescence measurements were carried out in the 290–450 nm range (λexc = 280 nm) at 289, 296, 303, 310, and 317 K. The addition of compound 23 to a 3.0 mL HSA solution (1.0 × 10^−5 M, in PBS) was done manually, achieving final concentrations of 0.17, 0.33, 0.50, 0.66, 0.83, 0.99, 1.15, and 1.32 × 10^−5 M. To obtain quantitative information on the binding capacity of 23 to HSA, Stern-Volmer, double-logarithmic, van’t Hoff, and Gibbs’ free energy analysis were applied following our previous works."}, "[6]": {"conditions": "Trypanosoma cruzi, TULAHUEN, screening at 50 μM, 120 h, compared with untreated controls"}}, "data": [{"smiles": "COc1cc(/C=C/c2nc(-c3ccccc3)no2)cc(OC)c1OC", "note": "[Compound 12, (E)-3-phenyl-5-[2-(3,4,5-trimethoxyphenyl)vinyl]-1,2,4-oxadiazole]", "values": [{"measurement": "viability at 50 µM", "setting": "[1]; [6]", "result": "37.8 ± 2.6", "unit": "%"}, {"measurement": "EC50", "setting": "[1]; Trypanosoma cruzi, TULAHUEN", "result": "22.5 ± 3.7", "unit": "µM"}, {"measurement": "S.I. (selectivity index)", "setting": "[1]", "result": ">4.5"}]}, {"smiles": "C(=C\\c1nc(-c2ccccc2)no1)/c1cccnc1", "note": "[Compound 15, (E)-3-phenyl-5-[2-pyridyn-3-yl-vinyl]-1,2,4-oxadiazole]", "values": [{"measurement": "melting point", "result": "107 to 110", "unit": "°C"}, {"measurement": "viability at 50 µM", "setting": "[1]; [6]", "result": 33.8, "unit": "%"}, {"measurement": "EC50", "setting": "[1]; Trypanosoma cruzi, TULAHUEN", "result": "33.8 ± 2.3", "unit": "µM"}, {"measurement": "S.I. (selectivity index)", "setting": "[1]", "result": ">3.0"}, {"measurement": "% Viability T. cruzi amastigotes", "setting": "[1]; screening at 50 μM, 120 h, compared with untreated controls, 50 µM", "result": "21.5 ± 2.2", "unit": "%"}]}, {"smiles": "COc1cc(/C=C/c2nc(-c3cc(OC)c(OC)c(OC)c3)no2)cc(OC)c1OC", "note": "[Compound 23, (E)-3-(3,4,5-trimethoxyphenyl)-5-[2-(3,4,5-trimethoxyphenyl)-vinyl]-1,2,4-oxadiazole]", "values": [{"measurement": "effect on the secondary content of HSA (CD)", "setting": "[2]", "result": "does not significantly perturb"}, {"measurement": "melting point", "result": "118 to 120", "unit": "°C"}, {"measurement": "decrease of the KSV value in the presence of warfarin", "setting": "[3]; 310 K", "result": 14, "unit": "%"}, {"measurement": "main binding site in HSA", "setting": "[3]; competitive binding with site probes", "result": "subdomain IIA (site I)"}, {"measurement": "%Relative τ1 of HSA:23", "setting": "[4]", "result": 23.5, "unit": "%"}, {"measurement": "%Relative τ2 of HSA:23", "setting": "[4]", "result": 76.5, "unit": "%"}, {"measurement": "τ1 of HSA:23", "setting": "[4]", "result": "1.59 ± 0.11", "unit": "ns"}, {"measurement": "τ2 of HSA:23", "setting": "[4]", "result": "5.70 ± 0.12", "unit": "ns"}, {"measurement": "τaverage of HSA:23", "setting": "[4]", "result": "4.73 ± 0.11", "unit": "ns"}, {"measurement": "lowest concentration with significant amastigote growth inhibition compared with host cell toxicity", "setting": "[1]; T. cruzi vs LLC-MK2, p < 0.05", "result": 1.0, "unit": "µM"}, {"measurement": "viability at 50 µM", "setting": "[1]; [6]", "result": "8.6 ± 1.2", "unit": "%"}, {"measurement": "viability at 1 µM", "setting": "[1]; Trypanosoma cruzi, TULAHUEN, LLC-MK2, T. cruzi amastigotes at 1.0 μM, read-out: amastigote viability", "result": "81.3 ± 6.2", "unit": "%"}, {"measurement": "EC50", "setting": "[1]; Trypanosoma cruzi, TULAHUEN", "result": "2.9 ± 0.2", "unit": "µM"}, {"measurement": "S.I. (selectivity index)", "setting": "[1]", "result": 26.7}, {"measurement": "ΔG°", "setting": "[5]; 289 K", "result": "−28.7", "unit": "kJmol^−1"}, {"measurement": "KSV (Stern-Volmer quenching constant)", "setting": "[5]; 289 K", "result": "1.56 ± 0.02 × 10^5 M^−1"}, {"measurement": "kq (bimolecular quenching rate constant)", "setting": "[5]; 289 K", "result": "3.22e+13", "unit": "M⁻¹ s⁻¹"}, {"measurement": "n (number of binding sites)", "setting": "[5]; 289 K", "result": "0.992 ± 0.01"}, {"measurement": "KSV values, order of magnitude", "setting": "[5]; 289–317 K", "result": "~10^5 M^−1"}, {"measurement": "kq values, order of magnitude", "setting": "[5]; 289–317 K", "result": "~10^13 M^−1s^−1"}, {"measurement": "ΔG°", "setting": "[5]; 296 K", "result": "−29.2", "unit": "kJmol^−1"}, {"measurement": "KSV (Stern-Volmer quenching constant)", "setting": "[5]; 296 K", "result": "1.44 ± 0.02 × 10^5 M^−1"}, {"measurement": "kq (bimolecular quenching rate constant)", "setting": "[5]; 296 K", "result": "2.97e+13", "unit": "M⁻¹ s⁻¹"}, {"measurement": "n (number of binding sites)", "setting": "[5]; 296 K", "result": "1.04 ± 0.01"}, {"measurement": "ΔG°", "setting": "[5]; 303 K", "result": "−29.7", "unit": "kJmol^−1"}, {"measurement": "KSV (Stern-Volmer quenching constant)", "setting": "[5]; 303 K", "result": "1.31 ± 0.07 × 10^5 M^−1"}, {"measurement": "kq (bimolecular quenching rate constant)", "setting": "[5]; 303 K", "result": "2.7e+13", "unit": "M⁻¹ s⁻¹"}, {"measurement": "n (number of binding sites)", "setting": "[5]; 303 K", "result": "1.09 ± 0.01"}, {"measurement": "ΔG°", "setting": "[5]; 310 K", "result": "−30.2", "unit": "kJmol^−1"}, {"measurement": "KSV (Stern-Volmer quenching constant)", "setting": "[5]; 310 K", "result": "1.22 ± 0.01 × 10^5 M^−1"}, {"measurement": "kq (bimolecular quenching rate constant)", "setting": "[5]; 310 K", "result": "2.52e+13", "unit": "M⁻¹ s⁻¹"}, {"measurement": "n (number of binding sites)", "setting": "[5]; 310 K", "result": "1.02 ± 0.01"}, {"measurement": "ΔG°", "setting": "[5]; 317 K", "result": "−30.7", "unit": "kJmol^−1"}, {"measurement": "KSV (Stern-Volmer quenching constant)", "setting": "[5]; 317 K", "result": "1.19 ± 0.02 × 10^5 M^−1"}, {"measurement": "kq (bimolecular quenching rate constant)", "setting": "[5]; 317 K", "result": "2.45e+13", "unit": "M⁻¹ s⁻¹"}, {"measurement": "n (number of binding sites)", "setting": "[5]; 317 K", "result": "1.02 ± 0.01"}, {"measurement": "ΔH°", "setting": "[5]; van't Hoff analysis, 289–317 K", "result": "−7.85 ± 0.71", "unit": "kJmol^−1"}, {"measurement": "ΔS°", "setting": "[5]; van't Hoff analysis, 289–317 K", "result": "72.2 ± 2.3 J/(mol·K)"}]}, {"smiles": "COc1cc(-c2noc(/C=C/c3ccc4c(c3)OCO4)n2)cc(OC)c1OC", "note": "[Compound 24, (E)-3-(3,4,5-trimethoxyphenyl)-5-[2-(3,4-methylenedioxy-phenyl)vinyl]-1,2,4-oxadiazole]", "values": [{"measurement": "melting point", "result": "177 to 180", "unit": "°C"}, {"measurement": "viability at 50 µM", "setting": "[1]; [6]", "result": "42.2 ± 2.7", "unit": "%"}, {"measurement": "EC50", "setting": "[1]; Trypanosoma cruzi, TULAHUEN", "result": "28.7 ± 3.1", "unit": "µM"}, {"measurement": "S.I. (selectivity index)", "setting": "[1]", "result": 1.9}]}]}
